Experimental data as given in ChEMBL document CHEMBL4483862, “Open-source discovery of chemical leads for next-generation chemoprotective antimalarials” (2018).

Tested on: Plasmodium berghei
Experiment: Luciferase/luciferin-expressing antifolate-resistant parasites were used to infect a culture of HepG2 cells that were pre-incubated with compounds. Infected hepatocytes emit light due to the luciferase reaction. Assay results are presented as the percent inhibition of light emission compared to control. […]
Format: functional
Conditions: sporozoite; for IC90: read-out: LUCIFERASE INFECTION ASSAY - IC90
[1] = read-out: LUCIFERASE INFECTION ASSAY - IC50

## CC(=O)OCc1ccccc1Sc1ccccc1C(=O)Nc1ccccc1
FFLUC_HILL_SLOPE 9.22, FFLUC_R_SQUARED 0.715, read-out: LUCIFERASE INFECTION ASSAY - IC50
  IC50: > 8.74 µM
  IC90: > 8.74 µM

## COc1cccc(CN2CCC2(C)C(=O)Nc2cccc(Oc3ccccc3)c2)c1F (configuration not stated)
HEPG2TOX_HILL_SLOPE 2.25, HEPG2TOX_R_SQUARED 0.907, PBLUC_HILL_SLOPE 3.39, PBLUC_R_SQUARED 0.419, read-out: LUCIFERASE INFECTION ASSAY - IC50
  IC50: 5.73 µM
  IC90: > 7.85 µM

## CCCc1c(NC(=O)Nc2cc(C(F)(F)F)cc(C(F)(F)F)c2)cnn1-c1ccccc1
FFLUC_HILL_SLOPE 11.3, FFLUC_R_SQUARED 0.657, HEPG2TOX_HILL_SLOPE 5.77, HEPG2TOX_R_SQUARED 0.944, PBLUC_HILL_SLOPE 9.21, PBLUC_R_SQUARED 0.384, read-out: LUCIFERASE INFECTION ASSAY - IC50
  IC50: 2.99 µM
  IC90: 3.79 µM

## COc1ccccc1NC(=O)c1ccc(NC(=O)Cn2ncc(Cl)c(Cl)c2=O)cc1
[1]
  IC50: 3.41 µM
  IC90: 4.54 µM

## COc1ccc(Nc2nccc3nc(-c4ccc(C)cc4)[nH]c23)cc1
HEPG2TOX_HILL_SLOPE 7.88, HEPG2TOX_R_SQUARED 0.839, PBLUC_HILL_SLOPE 3.67, PBLUC_R_SQUARED 0.381, read-out: LUCIFERASE INFECTION ASSAY - IC50
  IC50: 7.4 µM
  IC90: > 10 µM

## Cc1cc(Oc2ccc(-c3ccccc3)cc2)nc(C)n1
[1]
  IC50: > 10 µM
  IC90: > 10 µM

## CCCc1c(O)nc2ccc(C)cc2c1C
HEPG2TOX_HILL_SLOPE 1.25, HEPG2TOX_R_SQUARED 0.942, PBLUC_HILL_SLOPE 1.62, PBLUC_R_SQUARED 0.0626, read-out: LUCIFERASE INFECTION ASSAY - IC50
  IC50: 11.3 µM
  IC90: > 15.3 µM

## O=C(NC1CC1)c1ccc(CN(C2CC2)S(=O)(=O)c2cccs2)cc1
PBLUC_HILL_SLOPE 4.12, PBLUC_R_SQUARED 0.383, read-out: LUCIFERASE INFECTION ASSAY - IC50
  IC50: 7.92 µM
  IC90: > 10 µM

## CC(C)c1ccc(Nc2nccc3nc(-c4cccc(C(C)C)c4)[nH]c23)cc1
HEPG2TOX_HILL_SLOPE 1.74, HEPG2TOX_R_SQUARED 0.684, PBLUC_HILL_SLOPE 1.1, PBLUC_R_SQUARED 0.805, read-out: LUCIFERASE INFECTION ASSAY - IC50
  IC50: 2.41 µM
  IC90: > 10 µM

## O=C(N/N=C/c1c2ccccc2cc2ccccc12)c1ccc(Br)cc1
[1]
  IC50: > 8.18 µM
  IC90: > 8.18 µM

## CCN(CC)S(=O)(=O)c1cc([N+](=O)[O-])ccc1NN=CC1C(=O)N(c2ccc(C)cc2)C(=O)c2ccccc21 (configuration not stated)
FFLUC_HILL_SLOPE 3.56, FFLUC_R_SQUARED 0.6, HEPG2TOX_HILL_SLOPE 2.69, HEPG2TOX_R_SQUARED 0.936, PBLUC_HILL_SLOPE 15.5, PBLUC_R_SQUARED 0.0701, read-out: LUCIFERASE INFECTION ASSAY - IC50
  IC50: 9.71 µM
  IC90: > 10 µM

## CCOC(=O)c1c(NC(=O)CSc2nnc(N)[nH]2)sc(Br)c1-c1ccccc1
[1]
  IC50: 6.28 µM
  IC90: > 10 µM

## Cc1nc(SCC(=O)Nc2ccccc2C#N)c2c(-c3cccs3)csc2n1
PBLUC_HILL_SLOPE 4.22, PBLUC_R_SQUARED 0.391, read-out: LUCIFERASE INFECTION ASSAY - IC50
  IC50: 6.05 µM
  IC90: > 10 µM

## CCOC(=O)c1cc(-c2ccccc2)sc1NC(=O)CSc1nnc(-c2ccc(C(C)(C)C)cc2)n1-c1ccccc1
FFLUC_HILL_SLOPE 0.186, FFLUC_R_SQUARED 0.0278, read-out: LUCIFERASE INFECTION ASSAY - IC50
  IC50: > 10 µM
  IC90: > 10 µM

## O=c1c2c(-c3ccccc3)csc2nc2c3ccccc3c(NCCO)nn12
[1]
  IC50: > 10 µM
  IC90: > 10 µM

## FC(F)(F)c1cc(N=C(C/C=N/c2cc(C(F)(F)F)cc(C(F)(F)F)c2)c2ccc(Cl)cc2)cc(C(F)(F)F)c1
FFLUC_HILL_SLOPE 1.3, FFLUC_R_SQUARED 0.132, PBLUC_HILL_SLOPE 15.7, PBLUC_R_SQUARED 0.5, read-out: LUCIFERASE INFECTION ASSAY - IC50
  IC50: 0.585 µM
  IC90: 0.673 µM

## C=CCn1c(C)cc(C(=O)CSc2ccc(NC(C)=O)cc2)c1C
PBLUC_HILL_SLOPE 1.26, 1.79, PBLUC_R_SQUARED 0.402, 0.760, read-out: LUCIFERASE INFECTION ASSAY - IC50
  IC50: 1.34 µM
  IC90: 2.85 µM

## N#C/C(=C\c1ccccc1Cl)c1nc2ccccc2[nH]1
[1]
  IC50: > 11.8 µM
  IC90: > 11.8 µM

## CC(C)CC(NC(=O)Cc1ccsc1)C(=O)N/N=C/c1cccs1 (configuration not stated)
[1]
  IC50: > 9.08 µM
  IC90: > 9.08 µM

## Cc1ccc(Sc2ccc(/C=C/C(=O)c3ccc(Cl)c(Cl)c3Cl)cc2[N+](=O)[O-])cc1
[1]
  IC50: > 10 µM
  IC90: > 10 µM

## Cc1cc(N2CCN(C)CC2)n2ncc(-c3ccccc3Cl)c2n1
PBLUC_HILL_SLOPE 0.809, PBLUC_R_SQUARED 0.766, read-out: LUCIFERASE INFECTION ASSAY - IC50
  IC50: 1.46 µM
  IC90: > 9.65 µM

## COc1ccc2cc(CNc3ncnc4n[nH]cc34)ccc2c1
HEPG2TOX_HILL_SLOPE 1.04, HEPG2TOX_R_SQUARED 0.97, PBLUC_HILL_SLOPE 1.64, PBLUC_R_SQUARED 0.72, read-out: LUCIFERASE INFECTION ASSAY - IC50
  IC50: 1.13 µM
  IC90: 4.29 µM

## Nc1ncnc(N/N=C/c2c(O)ccc3ccccc23)c1[N+](=O)[O-]
HEPG2TOX_HILL_SLOPE 0.612, HEPG2TOX_R_SQUARED 0.82, read-out: LUCIFERASE INFECTION ASSAY - IC50
  IC50: > 10 µM
  IC90: > 10 µM

## N#C/C(=N\Nc1ccc(F)c(Cl)c1)C(=O)c1ccc(Cl)cc1
[1]
  IC50: 1.07 µM
  IC90: 1.26 µM

## O=S(=O)(c1ccc(NC(=S)N/N=C2\CC(c3ccccc3)Oc3ccccc32)cc1)N1CCOCC1 (configuration not stated)
[1]
  IC50: 8.98 µM
  IC90: > 10 µM

## Cc1ccc(C(=O)Nc2ccnn2CC(C)C)cn1
[1]
  IC50: > 10 µM
  IC90: > 10 µM

## Cc1ccc(NC(=O)c2cc(C(C)(C)C)n(-c3ccccc3)c2C)cc1
[1]
  IC50: 0.52 µM
  IC90: 4.46 µM

## Cc1cc(CSc2nnc(CN3CCCCC3)n2-c2ccc(F)cc2)on1
[1]
  IC50: > 10 µM
  IC90: > 10 µM

## CCOC(=O)c1ccc(N/C=C(\C(C)=O)c2ccc(OC)c(OC)c2)cc1
[1]
  IC50: > 8.93 µM
  IC90: > 8.93 µM

## O=S(=O)(CCSc1ccc(C(F)(F)F)cn1)c1ccc(OC(F)(F)F)cc1
[1]
  IC50: > 7.65 µM
  IC90: > 7.65 µM

## Cc1cccn2c(=O)cc(CSc3cc(C(=O)NC4CC4)c4ccccc4n3)nc12
[1]
  IC50: > 10 µM
  IC90: > 10 µM

## CCCN(Cc1nc(=O)c2ccc(Cl)cc2[nH]1)C(=O)C1CCN(c2nc3ccccc3o2)CC1
[1]
  IC50: > 10 µM
  IC90: > 10 µM

## COCc1nn2c3c(nnc2c1-c1ccccc1)C(=O)CC(c1ccccc1)C3 (configuration not stated)
FFLUC_HILL_SLOPE 8, FFLUC_R_SQUARED 0.814, HEPG2TOX_HILL_SLOPE 2.3, HEPG2TOX_R_SQUARED 0.367, PBLUC_HILL_SLOPE 4.06, PBLUC_R_SQUARED 0.599, read-out: LUCIFERASE INFECTION ASSAY - IC50
  IC50: 1.92 µM
  IC90: 3.29 µM

## CCOc1cc(C(=O)NC2CCCCCC2)ccc1OCc1cccnc1
[1]
  IC50: > 2 µM
  IC90: > 2 µM

## Cc1cc(=O)nc(N/N=C/c2ccccc2O)[nH]1
HEPG2TOX_HILL_SLOPE 1.27, HEPG2TOX_R_SQUARED 0.681, PBLUC_HILL_SLOPE 2.52, PBLUC_R_SQUARED 0.516, read-out: LUCIFERASE INFECTION ASSAY - IC50
  IC50: 6.93 µM
  IC90: > 13.5 µM

## O=C(Cc1cn(-c2ccccc2)nc1-c1ccc(Cl)cc1)NCc1ccc(Cn2ccnc2)cc1
PBLUC_HILL_SLOPE 23, PBLUC_R_SQUARED 0.395, read-out: LUCIFERASE INFECTION ASSAY - IC50
  IC50: 9.71 µM
  IC90: > 10 µM

## CC(C)Oc1ccc(Nc2nccc3[nH]c(-c4ccccc4)cc23)cc1
HEPG2TOX_HILL_SLOPE 24.7, HEPG2TOX_R_SQUARED 0.868, PBLUC_HILL_SLOPE 10.9, PBLUC_R_SQUARED 0.493, read-out: LUCIFERASE INFECTION ASSAY - IC50
  IC50: 3.42 µM
  IC90: 4.19 µM

## c1ccc(Oc2ccccc2-c2cn3c(-c4ccncc4)cnc3cn2)cc1
PBLUC_HILL_SLOPE 3.74, PBLUC_R_SQUARED 0.758, read-out: LUCIFERASE INFECTION ASSAY - IC50
  IC50: 4.9 µM
  IC90: 8.82 µM

## COc1ccc2c(c1)c(-c1csc(NC(=O)c3ccccn3)n1)c(C)n2C
PBLUC_HILL_SLOPE 1.89, PBLUC_R_SQUARED 0.766, read-out: LUCIFERASE INFECTION ASSAY - IC50
  IC50: > 8.72 µM
  IC90: > 8.72 µM

## CC(C)c1cccc(Nc2ccc3nnc(C(F)(F)F)n3n2)c1
[1]
  IC50: > 10 µM
  IC90: > 10 µM

## Cc1ccc(C2=NNC(=Nc3cccc(S(=O)(=O)N(C)C)c3)SC2)cc1
[1]
  IC50: 3.5 µM
  IC90: 4.33 µM

## N#Cc1ccc(/C=N/n2c(-c3ccc(F)cc3)cs/c2=N\c2cccnc2)cc1
FFLUC_HILL_SLOPE 41.3, FFLUC_R_SQUARED 0.462, HEPG2TOX_HILL_SLOPE 8.97, HEPG2TOX_R_SQUARED 0.901, PBLUC_HILL_SLOPE 3.58, PBLUC_R_SQUARED 0.653, read-out: LUCIFERASE INFECTION ASSAY - IC50
  IC50: 5.78 µM
  IC90: > 10 µM

## CCC1CCc2sc(C(=O)Nc3ccccc3O)cc2C1 (configuration not stated)
PBLUC_HILL_SLOPE 24.2, PBLUC_R_SQUARED 0.273, read-out: LUCIFERASE INFECTION ASSAY - IC50
  IC50: 9.71 µM
  IC90: > 10 µM

## Cc1ccc(CSCCNC(=O)c2ccc3c[nH]nc3c2)cc1
PBLUC_HILL_SLOPE 1.22, PBLUC_R_SQUARED 0.508, read-out: LUCIFERASE INFECTION ASSAY - IC50
  IC50: 4.61 µM
  IC90: > 10 µM

## O=C(Nc1ccnn1Cc1cccc(Cl)c1)c1csc(-c2ccsc2)n1
[1]
  IC50: > 10 µM
  IC90: > 10 µM

## COc1cc(/C=C2\SC(=O)N(CCNC(=O)c3cnccn3)C2=O)ccc1OC(F)F
HEPG2TOX_HILL_SLOPE 8.8, HEPG2TOX_R_SQUARED 0.871, PBLUC_HILL_SLOPE 1.47, PBLUC_R_SQUARED 0.589, read-out: LUCIFERASE INFECTION ASSAY - IC50
  IC50: > 10 µM
  IC90: > 10 µM
